Earlier results on 1 molecule are cited in patent US6358944B1, “Methods and compositions for treating generalized anxiety disorder” (Vela Pharmaceuticals, Inc., priority 1999, dated 2002).

Structures are written as SMILES.

Turning to `CN(C)CCC=C1c2ccccc2C=Cc2ccccc21` [cyclobenzaprine, 3-(5H-Dibenzo[a,d]cyclohepten-5-ylidene)-N,N-dimethyl-1-propanamine], for the setting “cyclobenzaprine treatment”, the “other less common side effects” value is “nausea, tiredness, constipation, blurred vision, nervousness, confusion, abdominal pain and discomfort”; the principal side effects result is “drowsiness, dry mouth or tongue, dizziness and bad taste”. Also, where the note is “cyclobenzaprine-treated patients at recommended doses”, the organ toxicity entry is given as “No indications of organ toxicity were found”. In addition, the “toxic effects after overdose” value (three individuals who ingested between 260 to 900 mg) is “Toxic effects were reported”.
